Measurements from US7700609B2, “Compositions useful as inhibitors of protein kinases” (Vertex Pharmaceuticals Incorporated, priority 2003, dated 2010).

Target: T1, Itk (Homo sapiens, UniProt Q08881)
T1 sequence (Q08881 1-620): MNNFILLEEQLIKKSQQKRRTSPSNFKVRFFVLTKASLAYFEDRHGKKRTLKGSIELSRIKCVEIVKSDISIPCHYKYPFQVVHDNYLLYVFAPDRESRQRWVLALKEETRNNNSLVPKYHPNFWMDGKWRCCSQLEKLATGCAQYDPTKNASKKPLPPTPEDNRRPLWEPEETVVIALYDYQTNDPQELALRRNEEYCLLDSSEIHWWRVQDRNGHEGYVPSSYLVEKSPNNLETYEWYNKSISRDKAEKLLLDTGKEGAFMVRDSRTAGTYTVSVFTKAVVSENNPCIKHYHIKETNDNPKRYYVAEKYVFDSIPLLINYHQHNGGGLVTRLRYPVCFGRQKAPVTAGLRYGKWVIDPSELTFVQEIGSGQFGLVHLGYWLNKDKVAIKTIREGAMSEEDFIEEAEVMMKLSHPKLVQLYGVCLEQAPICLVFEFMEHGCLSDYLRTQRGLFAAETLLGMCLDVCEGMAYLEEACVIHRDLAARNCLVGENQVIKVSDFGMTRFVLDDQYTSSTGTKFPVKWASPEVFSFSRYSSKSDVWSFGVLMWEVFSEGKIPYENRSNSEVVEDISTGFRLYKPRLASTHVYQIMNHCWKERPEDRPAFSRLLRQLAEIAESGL
Assay: Itk inhibition assay: spectrophotometric coupled enzyme (Method C)
Type: biochemical
Conditions: 100 μM ATP, read-out: Ki in the standard coupled enzyme assay (Method C)
Method: The compounds of the present invention were evaluated as inhibitors of human Itk kinase using either a radioactivity-based, spectrophotometric or alphascreen assay.
Compounds were screened for their ability to inhibit Itk using a standard coupled enzyme assay (Fox et al., Protein Sci., (1998) 7, 2249).
Assays were carried out in a mixture of 20 mM MOPS (pH 7.0), 10 mM MgCl2, 0.1% BSA, 1 mM DTT, 2.5 mM phosphoenolpyruvate, 300 μM NADH, 30 μg/ml pyruvate kinase and 10 μg/ml lactate dehydrogenase. Final substrate concentrations in the assay were 100 μM ATP (Sigma Chemicals) and 3 μM peptide (Biotinylated SAM68 Δ332-443). Assays were carried out at 25° C. and in the presence of 10 nM Itk.
An assay stock buffer solution was prepared containing all of the reagents listed above, with the exception of ATP and the test compound of interest. 60 μl of the stock solution was placed in a 96 well plate followed by addition of 2 μl of DMSO stock containing serial dilutions of the test compound (typically starting from a final concentration of 15 μM). The plate was preincubated for 10 minutes at 25° C. and the reaction initiated by addition of 5 μl of ATP. Initial reaction rates were determined with a Molecular Devices SpectraMax Plus plate reader over a 10 minute time course. IC50 and Ki data were calculated from non-linear regression analysis using the Prism software package (GraphPad Prism version 3.0cx for Macintosh, GraphPad Software, San Diego Calif., USA).

Ki	SMILES
< 1 µM	CC(C)(C)c1cccc(Nc2ncc3ccc4sc(C(=O)N5CCNCC5)cc4c3n2)c1 [Compound V-79]
< 1 µM	CC(C)(C)OC(=O)NC1CCN(C(=O)c2cc3c(ccc4cnc(Nc5cccc(F)c5)nc43)s2)C1 (stereo not shown) [Compound V-63]
< 1 µM	CC(C)(C)c1cccc(Nc2ncc3ccc4sc(C(=O)N5CCC(N)C5)cc4c3n2)c1 (stereo not shown) [Compound V-72]
< 1 µM	O=C(c1cc2c(ccc3cnc(Nc4cccc(N5CCOCC5)c4)nc32)s1)N1CCNCC1 [Compound V-112]
< 1 µM	NC1CCN(C(=O)c2nc3ccc4cnc(Nc5cccc(S(N)(=O)=O)c5)nc4c3s2)CC1 [Compound V-176]
< 1 µM	CS(=O)(=O)c1cccc(Nc2ncc3ccc4sc(C(=O)NC5(CO)CCCC5)cc4c3n2)c1 [Compound V-132]
< 1 µM	Cc1ccsc1-c1cccc(Nc2ncc3ccc4sc(C(=O)N5CCNCC5)cc4c3n2)c1 [Compound V-95]
< 1 µM	CC(=O)N1CCN(C(=O)c2cc3c(ccc4cnc(Nc5cccc(C(C)(C)C)c5)nc43)s2)CC1 [Compound V-105]
< 1 µM	CC(C)c1cccc(Nc2ncc3ccc4sc(C(=O)N5CCC(N)C5)cc4c3n2)c1 (stereo not shown) [Compound V-82]
< 1 µM	COc1ccccc1-c1cccc(Nc2ncc3ccc4sc(C(=O)N5CCNCC5)cc4c3n2)c1 [Compound V-91]
< 1 µM	CN1CCN(CCC(=O)Nc2cccc(Nc3ncc4ccc5sc(C(=O)N6CCOCC6)cc5c4n3)c2)CC1 [Compound V-70]
< 1 µM	CC(=O)Nc1cccc(Nc2ncc3ccc4sc(C(=O)N5CCOCC5)cc4c3n2)c1 [Compound V-68]
< 1 µM	CN(CCO)C(=O)c1cc2c(ccc3cnc(Nc4cccc(S(C)(=O)=O)c4)nc32)s1 [Compound V-152]
< 1 µM	CC(=O)NC1CCN(C(=O)c2cc3c(ccc4cnc(Nc5cccc(S(C)(=O)=O)c5)nc43)s2)C1 (stereo not shown) [Compound V-148]
< 1 µM	Cc1cscc1-c1cccc(Nc2ncc3ccc4sc(C(=O)N5CCNCC5)cc4c3n2)c1 [Compound V-96]
< 1 µM	CC(C)(C)c1cccc(Nc2ncc3ccc4sc(C(=O)N5CC[C@H](N)C5)cc4c3n2)c1 [Compound V-110]
< 1 µM	CS(=O)(=O)c1cccc(Nc2ncc3ccc4sc(C(=O)NC5CCOCC5)cc4c3n2)c1 [Compound V-150]
< 1 µM	CS(=O)(=O)c1cccc(Nc2ncc3ccc4sc(C(=O)N5CCC(N)C5)cc4c3n2)c1 (stereo not shown) [Compound V-101]
< 1 µM	COCCCNCCC(=O)Nc1cccc(Nc2ncc3ccc4sc(C(=O)N5CCOCC5)cc4c3n2)c1 [Compound V-77]
< 1 µM	CC(=O)N1CCCN(C(=O)c2cc3c(ccc4cnc(Nc5cccc(S(C)(=O)=O)c5)nc43)s2)CC1 [Compound V-138]
< 1 µM	CS(=O)(=O)c1cccc(Nc2ncc3ccc4sc(C(=O)NCC5CCNC5)cc4c3n2)c1 (stereo not shown) [Compound V-146]
< 1 µM	O=C(CCN1CCOCC1)Nc1cccc(Nc2ncc3ccc4sc(C(=O)N5CCOCC5)cc4c3n2)c1 [Compound V-69]
< 1 µM	O=C(c1cc2c(ccc3cnc(NCCc4ccc(Cl)cc4)nc32)s1)N1CCNCC1 [Compound V-159]
< 1 µM	Cc1ccccc1-c1cccc(Nc2ncc3ccc4sc(C(=O)N5CCNCC5)cc4c3n2)c1 [Compound V-90]
< 1 µM	O=C(c1cc2c(ccc3cnc(NCCc4cccc(Cl)c4)nc32)s1)N1CCNCC1 [Compound V-167]
< 1 µM	CN(C)C(=O)c1cc2c(ccc3cnc(Nc4cccc(S(C)(=O)=O)c4)nc32)s1 [Compound V-141]
< 1 µM	CC(C)Oc1cccc(Nc2ncc3ccc4sc(C(=O)N5CCNCC5)cc4c3n2)c1 [Compound V-102]
< 1 µM	Cc1cccc(C)c1-c1cccc(Nc2ncc3ccc4sc(C(=O)N5CCNCC5)cc4c3n2)c1 [Compound V-92]

Ki	SMILES
< 1 µM	O=C(c1cc2c(ccc3cnc(NCCc4ccc(O)cc4)nc32)s1)N1CCNCC1 [Compound V-182]
< 1 µM	CS(=O)(=O)c1cccc(Nc2ncc3ccc4sc(C(=O)NCC5CCNCC5)cc4c3n2)c1 [Compound V-149]
< 1 µM	NC1CCN(C(=O)c2cc3c(ccc4cnc(Nc5cccc(Cc6ccccc6)c5)nc43)s2)C1 (stereo not shown) [Compound V-88]
< 1 µM	CN(C)C(=O)c1cc2c(ccc3cnc(Nc4cccc(C(C)(C)C)c4)nc32)s1 [Compound V-104]
< 1 µM	CN(C)C(=O)c1ccc(Nc2ncc3ccc4sc(C(=O)N5CCNCC5)cc4c3n2)cc1 [Compound V-121]
< 1 µM	O=C(c1cc2c(ccc3cnc(NCCc4ccc(F)cc4)nc32)s1)N1CCNCC1 [Compound V-180]
< 1 µM	CC(C)N(C)C(=O)c1cc2c(ccc3cnc(Nc4cccc(S(C)(=O)=O)c4)nc32)s1 [Compound V-140]
< 1 µM	O=C(c1cc2c(ccc3cnc(Nc4ccncc4)nc32)s1)N1CCNCC1 [Compound V-116]
< 1 µM	NC1CCN(C(=O)c2cc3c(ccc4cnc(Nc5cccc(-c6ccccc6)c5)nc43)s2)C1 (stereo not shown) [Compound V-73]
< 1 µM	Nc1ccc(CCNc2ncc3ccc4sc(C(=O)N5CCNCC5)cc4c3n2)cc1 [Compound V-165]
< 1 µM	O=C(c1cc2c(ccc3cnc(NCCc4ccccc4Cl)nc32)s1)N1CCNCC1 [Compound V-162]
< 1 µM	O=C(c1cc2c(ccc3cnc(Nc4cccc(-c5ccccc5)c4)nc32)s1)N1CCNCC1 [Compound V-80]
< 1 µM	C[C@@H]1CN(C(=O)c2cc3c(ccc4cnc(Nc5cccc(S(C)(=O)=O)c5)nc43)s2)C[C@H](C)O1 [Compound V-143]
< 1 µM	O=C(c1cc2c(ccc3cnc(Nc4cccnc4)nc32)s1)N1CCNCC1 [Compound V-117]
< 1 µM	CC(C)(C)c1cccc(Nc2ncc3ccc4sc(C(=O)NCC5CCNCC5)cc4c3n2)c1 [Compound V-107]
< 1 µM	O=C(c1cc2c(ccc3cnc(Nc4ccc(N5CCOCC5)cc4)nc32)s1)N1CCNCC1 [Compound V-98]
< 1 µM	CC(=O)N1CCC(CNC(=O)c2cc3c(ccc4cnc(Nc5cccc(C(C)(C)C)c5)nc43)s2)C1 (stereo not shown) [Compound V-119]
< 1 µM	CC(C)(C)c1cccc(Nc2ncc3ccc4sc(C(=O)NCC5CCNC5)cc4c3n2)c1 (stereo not shown) [Compound V-108]
< 1 µM	CN1CCN(C(=O)c2cc3c(ccc4cnc(Nc5cccc(C(C)(C)C)c5)nc43)s2)CC1 [Compound V-56]
< 1 µM	COCCN(C)C(=O)c1cc2c(ccc3cnc(Nc4cccc(S(C)(=O)=O)c4)nc32)s1 [Compound V-139]
< 1 µM	CS(=O)(=O)c1cccc(Nc2ncc3ccc4sc(C(=O)N5CCC[C@H]5CO)cc4c3n2)c1 [Compound V-142]
< 1 µM	O=C(c1cc2c(ccc3cnc(NCCc4cccnc4)nc32)s1)N1CCNCC1 [Compound V-173]
< 1 µM	O=C(c1ccc(Nc2ncc3ccc4sc(C(=O)N5CCNCC5)cc4c3n2)cc1)N1CCOCC1 [Compound V-120]
< 1 µM	CC(=O)N1CCN(C(=O)c2cc3c(ccc4cnc(Nc5cccc(S(C)(=O)=O)c5)nc43)s2)CC1 [Compound V-147]
< 1 µM	COc1ccc(CCNc2ncc3ccc4sc(C(=O)N5CCNCC5)cc4c3n2)cc1 [Compound V-175]
< 1 µM	COCCNCCC(=O)Nc1cccc(Nc2ncc3ccc4sc(C(=O)N5CCOCC5)cc4c3n2)c1 [Compound V-76]
< 1 µM	CC1CN(C(=O)c2cc3c(ccc4cnc(Nc5cccc(S(C)(=O)=O)c5)nc43)s2)CC(C)N1 (stereo not shown) [Compound V-137]
